# According to PubChem BioAssay (NCI):
#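 1) Cells in 96-well plates. 2) Compound, 48 h, 5 concentrations. 3) Linear interpolation between surrounding doses. 4) Unreached endpoint = highest concentration. GI50 = concentration required for 50% inhibition of growth. TGI is the concentration that stops growth completely.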
# Experiments:
# Assay in all cases: inhibition of tumour cell growth, NCI panel, 48 h
# [1] = test system: A498 renal
# [2] = test system: ACHN renal
# [3] = test system: EKVX NSCLC
# [4] = test system: HOP-92 NSCLC
# [5] = test system: OVCAR-3 ovarian
# [6] = test system: RPMI-8226 leukemia
# [7] = test system: RXF 393 renal
# [8] = test system: SF-268 CNS
# [9] = test system: SW-620 colon
# [10] = test system: PC-3 prostate
Compound,TGI [1],TGI [2],TGI [3],TGI [4],TGI [5],TGI [6],TGI [7],TGI [8],TGI [9],GI50 [1],GI50 [2],GI50 [3],GI50 [4],GI50 [5],GI50 [10],TGI [10],GI50 [6],GI50 [8],GI50 [9],GI50 [7]
COc1ccc(/C=C2\CCC(C)(CN(C)C)C2=O)cc1OC (stereo not drawn),> 100 µM,> 100 µM,> 100 µM,> 100 µM,> 100 µM,> 100 µM,> 100 µM,> 100 µM,> 100 µM,–,–,–,–,–,–,–,–,–,–,–
O=C(CC1SC(=Nc2ccccc2Cl)NC1=O)Nc1ccc(Cl)cc1Cl (stereo not drawn),–,> 100 µM,> 100 µM,> 100 µM,> 100 µM,> 100 µM,> 100 µM,> 100 µM,> 100 µM,–,–,–,–,–,–,–,–,–,–,–
Cc1ccc(NC(=O)CC2C(=O)Nc3ccccc3S2(=O)=O)c(C)c1 (stereo not drawn),31.2 µM,39.1 µM,> 100 µM,31 µM,30.1 µM,43.4 µM,41 µM,39.6 µM,19.5 µM,–,–,–,–,–,–,–,–,–,–,–
N#CC1=C(/N=C/c2ccccc2)Oc2c(ccc3ccccc23)C1c1ccccc1 (stereo not drawn),0.747 µM,> 100 µM,> 100 µM,> 23.6 µM,2.3 µM,> 100 µM,–,> 100 µM,> 100 µM,0.191 µM,0.591 µM,5.13 µM,0.299 µM,0.341 µM,0.477 µM,> 100 µM,0.441 µM,1.02 µM,0.405 µM,–
O=c1[nH]cc(F)c(=O)n1C1OC(CO)C(O)C1O (stereo not drawn),–,> 100 µM,> 100 µM,> 100 µM,> 100 µM,> 100 µM,> 100 µM,> 100 µM,> 100 µM,–,–,–,–,–,–,–,–,–,–,–
O=C(O)/C=C/c1nc2ccccc2c(=O)o1,–,> 100 µM,> 100 µM,> 100 µM,> 100 µM,> 100 µM,–,–,> 100 µM,–,–,–,–,–,–,–,–,–,–,–
COc1ccc(-c2nc(/C=C3\SC(=NCc4ccccc4)NC3=O)c3ccccn23)cc1,6.56 µM,1.94 µM,> 25.5 µM,3.42 µM,2.46 µM,–,2.97 µM,1.57 µM,3.45 µM,1.51 µM,1.34 µM,2.41 µM,0.853 µM,1.04 µM,1.28 µM,4.35 µM,–,0.377 µM,1.68 µM,1.18 µM
NC(=O)NNC(=O)NC12CC3CC(CC(C3)C1)C2,> 100 µM,> 100 µM,> 100 µM,> 100 µM,> 100 µM,–,> 100 µM,> 100 µM,> 100 µM,–,–,–,–,–,–,–,–,–,–,–
NC(=O)c1csc(C2OC(COP(=O)(O)CP(=O)(O)OCC3OC(n4cnc5c(N)ncnc54)C(O)C3O)C(O)C2O)n1 (stereo not drawn),> 100 µM,> 100 µM,> 100 µM,> 100 µM,> 100 µM,> 100 µM,–,> 100 µM,> 100 µM,–,–,–,–,–,–,–,–,–,–,–
CCc1cccc(C)c1NC(=O)c1sc2nc3c(cc2c1N)C(=O)CCC3,0.759 µM,> 100 µM,–,74.7 µM,2.74 µM,> 24 µM,–,> 100 µM,> 100 µM,0.2 µM,0.872 µM,–,0.644 µM,0.375 µM,0.454 µM,> 100 µM,1.06 µM,3.06 µM,0.4 µM,–
